Results: patent publication US8188101B2 (AstraZeneca AB, priority 2008, dated 2012)

The compounds below were run on Aβ42 release (assay: Aβ release in cells stably expressing APPswe, Meso Scale Discovery electrochemiluminescence assay). Conditions: Homo sapiens, SH-SY5Y, HEK or SH-SY5Y cells stably expressing APPswe, 4-6 hours incubation with test compound.
Format: cell-based, Human
Protocol: The level of activity of the compounds on Aβ release was tested using the following method:
Compounds were diluted in 100% DMSO and stored at […] prior to use. Human Embryonic Kidney (HEK) or Human Neuroblastoma (SH-SY5Y) cell lines stably expressing APP with the Swedish mutation (APPswe) were cultured using Dulbecco's Modified Eagles medium (DMEM) supplied with […] glucose, Na-pyruvate and GlutaMAX with 10% FBS, 100 U/ml penicillin-streptomycin (PEST) respectively, 1× non-essential amino acids (NEAA), […] Hepes, 100 μg/ml Zeocine. Cells at about 80% confluence were washed with PBS, detached from culture flasks using 1× Trypsin/EDTA diluted in PBS, re-suspended in cell media and plated in 384-well poly-d-lysine coated cell culture plates at about 10000-15000 cells/well, in 25 μL cell media. Optionally, cryo-preserved cells (frozen and stored at −140° C. in 90% cell media and 10% DMSO) were thawed, washed and plated as above. Next the cells were incubated for 15-24 h at 37° C. and 5% CO2, after which cell medium was changed. Fresh medium containing test compound diluted ×200 from prepared compound plate was added to the cells before further incubation for 4-6 hours at 37° C. and 5% CO2. After incubation with test compound the amount of Aβ peptides, including Aβ42, Aβ40, Aβ39, Aβ38 and Aβ37, secreted to the cell medium was analyzed using the electrochemiluminescence assay technology from Meso Scale Discovery Technology, in combination with specific antibodies raised against the different Aβ peptides. Potential cytotoxic effects of the compounds were usually assayed by measuring the ATP content (ViaLight) from cell lysate.

Row | SMILES | IC50
1 | CC(=O)N1CCc2nc(Nc3ccc(-n4ccnc4C)cc3)nc(CCc3cccc(F)c3)c2C1 [Example 60, 1-(4-(3-Fluorophenethyl)-2-(4-(2-methyl-1H-imidazol-1-yl)phenylamino)-7,8-dihydropyrido[4,3-d]pyrimidin-6(5H)-yl)ethanone] | 501 nM
2 | Cc1nccn1-c1ccc(Nc2nc3c(c(CC4CCOCC4)n2)CN(C)CC3)cc1 [Example 61, 6-Methyl-N-(4-(2-methyl-1H-imidazol-1-yl)phenyl)-4-((tetrahydro-2H-pyran-4-yl)methyl)-5,6,7,8-tetrahydropyrido[4,3-d]pyrimidin-2-amine] | 10000 nM
3 | Cc1nccn1-c1ccc(Nc2nc3c(c(CC4CCOCC4)n2)CN(CCO)CC3)cc1 [Example 62, 2-(2-(4-(2-Methyl-1H-imidazol-1-yl)phenylamino)-4-((tetrahydro-2H-pyran-4-yl)methyl)-7,8-dihydropyrido[4,3-d]pyrimidin-6(5H)-yl)ethanol] | 10000 nM
4 | CC(=O)N1CCc2nc(Nc3ccc(-n4ccnc4C)cc3)nc(CC3CCOCC3)c2C1 [Example 63, 1-(2-(4-(2-Methyl-1H-imidazol-1-yl)phenylamino)-4-((tetrahydro-2H-pyran-4-yl)methyl)-7,8-dihydropyrido[4,3-d]pyrimidin-6(5H)-yl)ethanone] | 50100 nM
5 | Cc1nccn1-c1ccc(Nc2nc3c(c(Cc4ccc(F)cc4)n2)C[S+]([O-])CC3)cc1 (centres unmarked) [Example 64, 4-(4-Fluorobenzyl)-N-[4-(2-methyl-1H-imidazol-1-yl)phenyl]-7,8-dihydro-5H-thiopyrano[4,3-d]pyrimidin-2-amine 6-oxide] | 1000 nM
6 | COC(c1ccccc1)c1nc(Nc2ccc(-n3ccnc3C)cc2)nc2c1COCC2 (centres unmarked) [Example 65, 4-(Methoxy(phenyl)methyl)-N-(4-(2-methyl-1H-imidazol-1-yl)phenyl)-7,8-dihydro-5H-pyrano[4,3-d]pyrimidin-2-amine] | 316 nM
7 | COC(c1ccccc1)c1nc(Nc2ccc(-n3ccnc3C)cc2)nc2c1CS(=O)(=O)CC2 (centres unmarked) [Example 66, 4-[Methoxy(phenyl)methyl]-N-[4-(2-methyl-1H-imidazol-1-yl)phenyl]-7,8-dihydro-5H-thiopyrano[4,3-d]pyrimidin-2-amine 6,6-dioxide] | 1260 nM
8 | Cc1nccn1-c1ccc(Nc2nc3c(c(CC4CCOCC4)n2)COCC3)cc1 [Example 67, N-(4-(2-Methyl-1H-imidazol-1-yl)phenyl)-4-((tetrahydro-2H-pyran-4-yl)methyl)-7,8-dihydro-5H-pyrano[4,3-d]pyrimidin-2-amine] | 10000 nM
9 | COc1cc(Nc2nc3c(c(Cc4ccccc4)n2)CN(C)CC3)ccc1-n1cnc(C)c1 [Example 68, 4-Benzyl-N-(3-methoxy-4-(4-methyl-1H-imidazol-1-yl)phenyl)-6-methyl-5,6,7,8-tetrahydropyrido[4,3-d]pyrimidin-2-amine] | 20 nM
10 | Cc1nccn1-c1ccc(Nc2nc3c(c(NC4CCCCC4)n2)CN(C)CC3)cc1 [Example 69, N4-Cyclohexyl-6-methyl-N2-(4-(2-methyl-1H-imidazol-1-yl)phenyl)-5,6,7,8-tetrahydropyrido[4,3-d]pyrimidine-2,4-diamine] | 398 nM
11 | Cc1nccn1-c1ccc(N(C)c2nc3c(c(N4c5ccccc5C[C@H]4CO)n2)CN(C)CC3)cc1 [Example 72] | 631 nM
12 | Cc1nccn1-c1ccc(Nc2nc3c(c(NC[C@@H]4CCCO4)n2)CN(C)CC3)cc1 [Example 73, (S)-6-Methyl-N2-(4-(2-methyl-1H-imidazol-1-yl)phenyl)-N4-((tetrahydrofuran-2-yl)methyl)-5,6,7,8-tetrahydropyrido[4,3-d]pyrimidine-2,4-diamine] | 794 nM
13 | Cc1nccn1-c1ccc(Nc2nc3c(c(NC[C@H]4CCCO4)n2)CN(C)CC3)cc1 [Example 74, (R)-6-Methyl-N2-(4-(2-methyl-1H-imidazol-1-yl)phenyl)-N4-((tetrahydrofuran-2-yl)methyl)-5,6,7,8-tetrahydropyrido[4,3-d]pyrimidine-2,4-diamine] | 1000 nM
14 | COc1cc(Nc2nc3c(c(Cc4ccccc4)n2)CN(CCO)CC3)ccc1-n1cnc(C)c1 [Example 75, 2-(4-Benzyl-2-(3-methoxy-4-(4-methyl-1H-imidazol-1-yl)phenylamino)-7,8-dihydropyrido[4,3-d]pyrimidin-6(5H)-yl)ethanol] | 25.1 nM
15 | Cc1nccn1-c1ccc(Nc2nc3c(c(N(CCO)Cc4ccccc4)n2)CN(C)CC3)cc1 [Example 76, 2-(Benzyl(6-methyl-2-(4-(2-methyl-1H-imidazol-1-yl)phenylamino)-5,6,7,8-tetrahydropyrido[4,3-d]pyrimidin-4-yl)amino)ethanol] | 501 nM
16 | CCN(CC1CCCO1)c1nc(Nc2ccc(-n3ccnc3C)cc2)nc2c1CN(CCO)CC2 (centres unmarked) [Example 77, 2-(4-(Ethyl((tetrahydrofuran-2-yl)methyl)amino)-2-(4-(2-methyl-1H-imidazol-1-yl)phenylamino)-7,8-dihydropyrido[4,3-d]pyrimidin-6(5H)-yl)ethanol] | 631 nM
17 | Cc1nccn1-c1ccc(Nc2nc3c(c(N(CCC#N)C4CC4)n2)CN(C)CC3)cc1 [Example 78, 3-(Cyclopropyl(6-methyl-2-(4-(2-methyl-1H-imidazol-1-yl)phenylamino)-5,6,7,8-tetrahydropyrido[4,3-d]pyrimidin-4-yl)amino)propanenitrile] | 1000 nM
18 | Cc1nccn1-c1ccc(Nc2nc3c(c(NCC4CCOCC4)n2)CN(C)CC3)cc1 [Example 79, 6-Methyl-N2-(4-(2-methyl-1H-imidazol-1-yl)phenyl)-N4-((tetrahydro-2H-pyran-4-yl)methyl)-5,6,7,8-tetrahydropyrido[4,3-d]pyrimidine-2,4-diamine] | 1260 nM

Further lines, results first:

Row | IC50 | SMILES
19 | 158 nM | OCCN1CCc2nc(Nc3ccc(-c4cnco4)cc3)nc(NC[C@H]3CCCO3)c2C1 [Example 80, (R)-2-(2-(4-(Oxazol-5-yl)phenylamino)-4-((tetrahydrofuran-2-yl)methylamino)-7,8-dihydropyrido[4,3-d]pyrimidin-6(5H)-yl)ethanol]
20 | 251 nM | CCN(CC1CCCO1)c1nc(Nc2ccc(-c3cnco3)cc2)nc2c1CN(CCO)CC2 (centres unmarked) [Example 81, 2-(4-(Ethyl((tetrahydrofuran-2-yl)methyl)amino)-2-(4-(oxazol-5-yl)phenylamino)-7,8-dihydropyrido[4,3-d]pyrimidin-6(5H)-yl)ethanol]
21 | 316 nM | CCN(CC1CCCO1)c1nc(Nc2ccc(-c3cnco3)cc2)nc2c1CN(C)CC2 (centres unmarked) [Example 82, N4-Ethyl-6-methyl-N2-(4-(oxazol-5-yl)phenyl)-N4-((tetrahydrofuran-2-yl)methyl)-5,6,7,8-tetrahydropyrido[4,3-d]pyrimidine-2,4-diamine]
22 | 158 nM | CN1CCc2nc(Nc3ccc(-c4cnco4)cc3)nc(NC[C@@H]3CCCO3)c2C1 [Example 83, (S)-6-Methyl-N2-(4-(oxazol-5-yl)phenyl)-N4-((tetrahydrofuran-2-yl)methyl)-5,6,7,8-tetrahydropyrido[4,3-d]pyrimidine-2,4-diamine]
23 | 158 nM | CN1CCc2nc(Nc3ccc(-c4cnco4)cc3)nc(NC[C@H]3CCCO3)c2C1 [Example 84, (R)-6-Methyl-N2-(4-(oxazol-5-yl)phenyl)-N4-((tetrahydrofuran-2-yl)methyl)-5,6,7,8-tetrahydropyrido[4,3-d]pyrimidine-2,4-diamine]
24 | 251 nM | CN1CCc2nc(Nc3ccc(-c4cnco4)cc3)nc(NCC3CCOCC3)c2C1 [Example 85, 6-Methyl-N2-(4-(oxazol-5-yl)phenyl)-N4-((tetrahydro-2H-pyran-4-yl)methyl)-5,6,7,8-tetrahydropyrido[4,3-d]pyrimidine-2,4-diamine]
25 | 501 nM | OCCN1CCc2nc(Nc3ccc(-c4cnco4)cc3)nc(NCC3CCOCC3)c2C1 [Example 86, 2-(2-(4-(Oxazol-5-yl)phenylamino)-4-((tetrahydro-2H-pyran-4-yl)methylamino)-7,8-dihydropyrido[4,3-d]pyrimidin-6(5H)-yl)ethanol]
26 | 316 nM | Cc1cc(C(C)c2ccccc2)nc(Nc2ccc(-n3ccnc3C)cc2)n1 (centres unmarked) [Example 87, 4-Methyl-N-(4-(2-methyl-1H-imidazol-1-yl)phenyl)-6-(1-phenylethyl)pyrimidin-2-amine]
27 | 398 nM | CC(=O)N1CCc2nc(Nc3ccc(-c4cnco4)cc3)nc(N(C)C3CCCCC3)c2C1 [Example 88, 1-(4-(Cyclohexyl(methyl)amino)-2-(4-(oxazol-5-yl)phenylamino)-7,8-dihydropyrido[4,3-d]pyrimidin-6(5H)-yl)ethanone]
28 | 631 nM | CC(=O)N1CCc2nc(Nc3ccc(-c4cnco4)cc3)nc(N(C)c3ccc(F)cc3)c2C1 [Example 89, 1-(4-((4-Fluorophenyl)(methyl)amino)-2-(4-(oxazol-5-yl)phenylamino)-7,8-dihydropyrido[4,3-d]pyrimidin-6(5H)-yl)ethanone]
29 | 631 nM | CC(=O)N1CCc2nc(Nc3ccc(-c4cnco4)cc3)nc(N3CCc4ccccc43)c2C1 [Example 90, 1-(4-(Indolin-1-yl)-2-(4-(oxazol-5-yl)phenylamino)-7,8-dihydropyrido[4,3-d]pyrimidin-6(5H)-yl)ethanone]
